Measurements reported in patent US20210269848A1, “COMPOSITION OF MICROORGANISMS INDICATING DECONTAMINATION” (NOVOLYZE, priority 2018, published 2021).

How the values were obtained:
E. faecium ATCC 8459 [1] = experiment: Log loss after heat treatment on macadamia; type: cell-based; conditions: 3% dye
Experimental: (§1) “Log loss” refers to the difference between initial viability and viability at a given time.
(§2) The test is performed for the following 3 strains: E. faecium ATCC 8459, P. agglomerans CNCM I-5055 and A. pascens CNCM I-5181.
(§3) Addition of 10% pure lyophilisate of the strains to 5 g of maltodextrin. Vortexing for homogenization. Addition of 3% of dye. Vortexing. Addition of 1% of the dyed strain mixture diluted 1/10 to 5 g of macadamia. Mixing with a sterile spatula. Drying 2 h. Deposition of 0.3 g in Eppendorf tubes then heat treatment of the tubes in a dry bath at 90 and 100° C. for 0, 2, 5, 10 minutes

[2] = tested on: P. agglomerans CNCM I-5055; experiment: Log loss after heat treatment on macadamia; type: cell-based; conditions: 3% dye
Experimental: as §1, §2, §3

A. pascens CNCM I-5181 [3] = experiment: Log loss after heat treatment on macadamia; type: cell-based; conditions: 3% dye
Experimental: as §1, §2, §3

E. faecium ATCC 8459 [4] = experiment: Log loss after heat treatment on nonfat dried milk NFDM; type: cell-based; conditions: 3% dye
Experimental: as §1, §2
(§4) Addition of 10% of pure lyophilisate of the strains to 5 g of maltodextrin. Vortexing for homogenization. […] Vortexing. Addition of 1% of the dyed strain mixture diluted 1/10 to 5 g NFDM. Vortexing. Deposition of 0.1 g in Eppendorf tubes then heat treatment of the tubes in a dry bath at 90 and 100° C. for 2, 5 and 10 minutes

[5] = tested on: P. agglomerans CNCM I-5055; experiment: as above; type: cell-based; conditions: 3% dye
Experimental: as §1, §2, §4

A. pascens CNCM I-5181 [6] = experiment: as above; type: cell-based; conditions: 3% dye
Experimental: as §1, §2, §4

Enterococcus faecium = experiment: Heat resistance (log loss) of E. faecium compositions with brilliant blue FCF at 100° C.; type: cell-based; conditions: 3% dye
Experimental: as §1
Method: The Enterococcus faecium strain in dry form was mixed with an inert support (maltodextrin) and with each dye individually. The subsequent mixture is placed in an Eppendorf tube in a dry bath at a temperature of 100° C. Samples were taken at 2, 5 and 10 min and cell counts were performed on TSA (Trypticase Soy Agar) medium for 24 h at 37° C.
Must: addition of 3% of blue dye powder to 5 mL of fermentation must in a sterile jar. Vortexing for homogenization, distribution in tubes and heat treatment.
Pure: addition of 3% of dye to 5 g of pure lyophilisate in a sterile jar. Vortexing for homogenization, distribution in tubes and heat treatment.
Support: addition of 1% of pure lyophilisate to 5 g of maltodextrin in a sterile jar (1/100 dilution). Vortexing for homogenization, then addition of 3% of dye. Vortexing then distribution in tubes and heat treatment.

E. faecium ATCC 8459 [7] = experiment: Log loss after heat treatment on black pepper; type: cell-based; conditions: 3% dye
Experimental: as §1
(§5) The test is performed for the following 3 strains: E. faecium ATCC 8459, P. agglomerans CNCM I-5055 and A. pascens CNCM I-5181
as §3, with “10% of” for “10%”, “Addition of 3% of dye.” left out, “black pepper followed by a spray of wet fixing agent for good adhesion.” for “macadamia.”, “0.2” for “0.3”, “for” for “for 0,”, “5 and” for “5,”

[8] = tested on: P. agglomerans CNCM I-5055; experiment: Log loss after heat treatment on black pepper; type: cell-based; conditions: 3% dye
Experimental: as §1, §5
as §3, with “10% of” for “10%”, “Addition of 3% of dye.” left out, “black pepper followed by a spray of wet fixing agent for good adhesion.” for “macadamia.”, “0.2” for “0.3”, “for” for “for 0,”, “5 and” for “5,”

A. pascens CNCM I-5181 [9] = experiment: Log loss after heat treatment on black pepper; type: cell-based; conditions: 3% dye
Experimental: as §1, §5
as §3, with “10% of” for “10%”, “Addition of 3% of dye.” left out, “black pepper followed by a spray of wet fixing agent for good adhesion.” for “macadamia.”, “0.2” for “0.3”, “for” for “for 0,”, “5 and” for “5,”

CCN(Cc1cccc(S(=O)(=O)O)c1)c1ccc(C(=C2C=CC(=[N+](CC)Cc3cccc(S(=O)(=O)O)c3)C=C2)c2ccccc2S(=O)(=O)[O-])cc1 [brilliant blue FCF]
Log loss at 90° C. (E. faecium ATCC 8459 [1]; 2 min): 0.2 | Log loss at 100° C. (E. faecium ATCC 8459 [1]; 2 min): 0.24 | Log loss at 90° C. (E. faecium ATCC 8459 [1]; 5 min): 0.53 | Log loss at 100° C. (E. faecium ATCC 8459 [1]; 5 min): 0.47 | Log loss at 90° C. (E. faecium ATCC 8459 [1]; 10 min): 1.2 | Log loss at 100° C. (E. faecium ATCC 8459 [1]; 10 min): 1.24 | Log loss at 90° C. ([2]; 2 min): 0.3 | Log loss at 100° C. ([2]; 2 min): 0.14 | Log loss at 90° C. ([2]; 5 min): 0.6 | Log loss at 100° C. ([2]; 5 min): 0.15 | Log loss at 90° C. ([2]; 10 min): 0.14 | Log loss at 100° C. ([2]; 10 min): 1.36 | Log loss at 90° C. (A. pascens CNCM I-5181 [3]; 2 min): 0.25 | Log loss at 100° C. (A. pascens CNCM I-5181 [3]; 2 min): 0.05 | Log loss at 90° C. (A. pascens CNCM I-5181 [3]; 5 min): 0.18 | Log loss at 100° C. (A. pascens CNCM I-5181 [3]; 5 min): 0.12 | Log loss at 90° C. (A. pascens CNCM I-5181 [3]; 10 min): 0.38 | Log loss at 100° C. (A. pascens CNCM I-5181 [3]; 10 min): 0.6 | Log loss at 90° C. (E. faecium ATCC 8459 [4]; 2 min): 0.51 | Log loss at 100° C. (E. faecium ATCC 8459 [4]; 2 min): 0.36 | Log loss at 90° C. (E. faecium ATCC 8459 [4]; 5 min): 0.36 | Log loss at 100° C. (E. faecium ATCC 8459 [4]; 5 min): 0.59 | Log loss at 90° C. (E. faecium ATCC 8459 [4]; 10 min): 0.46 | Log loss at 100° C. (E. faecium ATCC 8459 [4]; 10 min): 1.29 | Log loss at 90° C. ([5]; 2 min): 0.07 | Log loss at 100° C. ([5]; 2 min): 0.13 | Log loss at 90° C. ([5]; 5 min): 0.07 | Log loss at 100° C. ([5]; 5 min): 0.67 | Log loss at 90° C. ([5]; 10 min): 0.37 | Log loss at 100° C. ([5]; 10 min): 0.72 | Log loss at 90° C. (A. pascens CNCM I-5181 [6]; 2 min): 0.06 | Log loss at 100° C. (A. pascens CNCM I-5181 [6]; 2 min): 0.26 | Log loss at 90° C. (A. pascens CNCM I-5181 [6]; 5 min): 0.46 | Log loss at 100° C. (A. pascens CNCM I-5181 [6]; 5 min): 0.35 | Log loss at 90° C. (A. pascens CNCM I-5181 [6]; 10 min): 0.62 | Log loss at 100° C. (A. pascens CNCM I-5181 [6]; 10 min): 1.82 | effect on viability of the indicator microorganisms (indicator microorganisms): does not affect the viability of the indicator microorganisms | Log loss at 100° C. (Enterococcus faecium; Must (fermentation must), 2 min): 1.23 | Log loss at 100° C. (Enterococcus faecium; Must (fermentation must), 5 min): 1.44 | Log loss at 100° C. (Enterococcus faecium; Must (fermentation must), 10 min): 2.16 | Log loss at 100° C. (Enterococcus faecium; Pure (lyophilisate without support), 2 min): 0.02 | Log loss at 100° C. (Enterococcus faecium; Pure (lyophilisate without support), 5 min): 0.17 | Log loss at 100° C. (Enterococcus faecium; Pure (lyophilisate without support), 10 min): 0.50 | Log loss at 100° C. (Enterococcus faecium; Support (maltodextrin), 2 min): 0.13 | Log loss at 100° C. (Enterococcus faecium; Support (maltodextrin), 5 min): 0.94 | Log loss at 100° C. (Enterococcus faecium; Support (maltodextrin), 10 min): 1.97 | Log loss at 90° C. (E. faecium ATCC 8459 [7]; 2 min): 0.31 | Log loss at 100° C. (E. faecium ATCC 8459 [7]; 2 min): 1.35 | Log loss at 90° C. (E. faecium ATCC 8459 [7]; 5 min): 0.82 | Log loss at 100° C. (E. faecium ATCC 8459 [7]; 5 min): 1.37 | Log loss at 90° C. (E. faecium ATCC 8459 [7]; 10 min): 1.46 | Log loss at 100° C. (E. faecium ATCC 8459 [7]; 10 min): 2.19 | Log loss at 90° C. ([8]; 2 min): 1.12 | Log loss at 100° C. ([8]; 2 min): 1.26 | Log loss at 90° C. ([8]; 5 min): 1.6 | Log loss at 100° C. ([8]; 5 min): 1.45 | Log loss at 90° C. ([8]; 10 min): 1.77 | Log loss at 100° C. ([8]; 10 min): 2.14 | Log loss at 90° C. (A. pascens CNCM I-5181 [9]; 2 min): 0.59 | Log loss at 100° C. (A. pascens CNCM I-5181 [9]; 2 min): 0.27 | Log loss at 90° C. (A. pascens CNCM I-5181 [9]; 5 min): 0.76 | Log loss at 100° C. (A. pascens CNCM I-5181 [9]; 5 min): 0.64 | Log loss at 90° C. (A. pascens CNCM I-5181 [9]; 10 min): 0.85 | Log loss at 100° C. (A. pascens CNCM I-5181 [9]; 10 min): 0.85
